We go through 13 compounds from ChEMBL document CHEMBL2169761, “Exploring the interactions of unsaturated glucuronides with influenza virus sialidase” (J Med Chem, 2012).

A short description of experiment [1]: Inhibition of Influenza A virus sialidase N2 by fluorometric assay.
Experiment [2] can be described thus: Inhibition of Influenza A virus sialidase N2.

As a reminder, the IC50 is the concentration that gives 50% inhibition. In experiment [1], `CCC(CC)O[C@@H]1OC(C(=O)O)=C[C@H](OC)[C@H]1NC(C)=O` came in with an IC50 of 1450 nM.

As for `CCC(CC)O[C@@H]1OC(C(=O)O)=C[C@H](N)[C@H]1NC(C)=O`, the IC50 in experiment [2] came out at 770 nM. With `CC(=O)N[C@H]1[C@H]([C@H](O)[C@H](O)CO)OC(C(=O)O)=C[C@@H]1NC(=N)N` [ZANAMIVIR], the half-maximal inhibitory concentration (IC50) turned out to be 12 nM in experiment [1] and 5 nM in experiment [2]. For `CCO[C@H]1C=C(C(=O)O)O[C@@H]([C@H](O)[C@H](O)CO)[C@@H]1NC(C)=O`, in experiment [1], the IC50 worked out at 479000 nM. Turning to `CCC(CC)O[C@@H]1C=C(C(=O)O)C[C@H](O)[C@H]1NC(C)=O`, the concentration for half-maximal inhibition (IC50) in experiment [2] stood at 15 nM.

Usually Ki stands for the equilibrium dissociation constant of an inhibitor or competing ligand from its target. A lower Ki goes with a stronger hold on the target. The compound `C/C=C\[C@@H]1C[C@H](C(=O)O)N[C@H]1[C@@H](NC(C)=O)[C@](C)(CCC)OC` yielded an inhibitory constant (Ki) in experiment [2] of 0.2 nM.

Compound `CC(=O)N[C@H]1[C@H]([C@H](O)[C@H](O)CO)OC(C(=O)O)=C[C@@H]1N` registered a half-inhibitory concentration (IC50) in experiment [1] of 680 nM. On the same count and under the same terms, the result for `CCO[C@H]1C=C(C(=O)O)O[C@@H](OC(CC)CC)[C@@H]1NC(C)=O` reads 28000 nM; that for `C=CCO[C@H]1C=C(C(=O)O)O[C@@H](OC(CC)CC)[C@@H]1NC(C)=O`, 212000 nM. Consider `C=C[C@H]1CC(C(=O)O)=C[C@@H](OC(C)C)[C@@H]1NC(C)=O`, for which the Ki in experiment [2] came out at 45 nM. For the compound `CC(=O)N[C@H]1[C@H]([C@H](O)[C@H](O)CO)OC(C(=O)O)=C[C@@H]1O` [NEU5AC2EN], the figures for the 50% inhibitory concentration (IC50) in experiment [1] and in experiment [2] were 10500 nM and 1700 nM, respectively. As for `CCC(CC)O[C@@H]1OC(C(=O)O)=C[C@H](OC(C)=O)[C@H]1NC(C)=O`, half-maximal inhibition in experiment [1] (IC50) was put at 5390 nM. For `CCC(CC)O[C@@H]1OC(C(=O)O)=C[C@H](O)[C@H]1NC(C)=O`, in experiment [1], the IC50 came to 320 nM.
